system: PC9; assay: cell count fold change with erlotinib, miRNA mimic vs non-targeting control (log2 ratio); higher = more drug-tolerant survivors than NTC; settings: erlotinib 1 µM; 72 h drug + 72 h drug-free recovery; perturbation: miRNA mimic

Sequence	cell count fold change with erlotinib
AAAAACUGUAAUUACUUUU	0.031
AAAAGCUGGGUUGAGAGGGCGA	-2.14
AAACCUGUGUUGUUCAAGAGUC	-0.0774
AAAGACAUAGGAUAGAGUCACCUC	-0.142
AAAGCGCUUCCCUUCAGAGUG	-1.78
AAAGUAGCUGUACCAUUUGC	-2.51
AAAGUGCAUCCUUUUAGAGGUU	-0.881
AAAGUGCUGCGACAUUUGAGCGU	0.0776
AAAGUGCUUCCUUUUAGAGGG	-0.225
AAAGUGCUUCCUUUUAGAGGGU	0.14
AAAGUGCUUCUCUUUGGUGGGU	0.279
AACAUAGAGGAAAUUCCACGU	-1.33
AACAUUCAACGCUGUCGGUGAGU	-3.99
AACCCGUAGAUCCGAUCUUGUG	-0.33
AACUGGCCCUCAAAGUCCCGCU	-0.145
AAGAUGUGGAAAAAUUGGAAUC	-0.304
AAGCAGCUGCCUCUGAGGC	0.0583
AAGCAUUCUUUCAUUGGUUGG	-1.49
AAGCCCUUACCCCAAAAAGCAU	-1.75
AAGGAGCUCACAGUCUAUUGAG	-1.13
AAGGAGCUUACAAUCUAGCUGGG	-0.343
AAGUGAUCUAAAGGCCUACAU	-3.48
AAGUGUGCAGGGCACUGGU	-3.4
AAUCAUACAGGGACAUCCAGUU	-1.33
ACAAAGUGCUUCCCUUUAGAGUGU	-0.659
ACCCUAUCAAUAUUGUCUCUGC	-3.19

Sequence	cell count fold change with erlotinib
ACGGAUGUUUGAGCAUGUGCUA	-2.45
ACGGGUUAGGCUCUUGGGAGCU	-2.04
ACUGCAUUAUGAGCACUUAAAG	-0.728
ACUGUAGUAUGGGCACUUCCAG	-1.17
ACUUGUAUGCUAGCUCAGGUAG	-0.236
AGACCAUGGGUUCUCAUUGU	-1.65
AGACCUGGCCCAGACCUCAGC	0.672
AGACUUCCCAUUUGAAGGUGGC	-0.166
AGAGCUUAGCUGAUUGGUGAAC	-3.36
AGAUCAGAAGGUGAUUGUGGCU	-0.11
AGCAGCAUUGUACAGGGCUAUCA	-0.458
AGCAGCAUUGUACAGGGCUAUGA	-0.577
AGCCUGGAAGCUGGAGCCUGCAGU	-0.167
AGCUGGUGUUGUGAAUCAGGCCG	-0.131
AGGACCUGCGGGACAAGAUUCUU	0.369
AGGAUGAGCAAAGAAAGUAGAUU	-2.25
AGGCAGCGGGGUGUAGUGGAUA	1.05
AGGCAGUGUAGUUAGCUGAUUGC	1.35
AGGCGGAGACUUGGGCAAUUG	-3.29
AGGGCUUAGCUGCUUGUGAGCA	-3.74
AGGGGUGCUAUCUGUGAUUGA	0.941
AGGGGUGGUGUUGGGACAGCUCCGU	-0.171
AGGGUGUUUCUCUCAUCUCU	-1.29
AGGUUACCCGAGCAACUUUGCAU	-0.13
AGGUUGGGAUCGGUUGCAAUGCU	-0.41
AGGUUGUCCGUGGUGAGUUCGCA	-0.399

Sequence	cell count fold change with erlotinib
AGUCAUUGGAGGGUUUGAGCAG	-3.38
AGUGAAUGAUGGGUUCUGACC	-3.04
AGUGCCUGAGGGAGUAAGAGCCC	-2.56
AGUUUUGCAGGUUUGCAUCCAGC	-0.535
AGUUUUGCAGGUUUGCAUUUCA	-0.889
AGUUUUGCAUAGUUGCACUACA	-2.57
AUCACAUUGCCAGGGAUUUCC	-1.61
AUCAUAGAGGAAAAUCCACGU	-3.73
AUCAUGAUGGGCUCCUCGGUGU	-3.05
AUGCUGACAUAUUUACUAGAGG	-1.82
AUGGUUCCGUCAAGCACCAUGG	-2.16
AUGUAGGGCUAAAAGCCAUGGG	-1.51
AUGUAUGUGUGCAUGUGCAUG	0.321
AUUCCUAGAAAUUGUUCAUA	0.458
AUUCUGCAUUUUUAGCAAGUUC	-0.25
CAAAGAGGAAGGUCCCAUUAC	-0.517
CAAAGCGCUCCCCUUUAGAGGU	-0.185
CAAAGCGCUUCCCUUUGGAGC	-0.111
CAACCUGGAGGACUCCAUGCUG	-0.199
CAACGGAAUCCCAAAAGCAGCUG	-1.27
CAAGCUCGUGUCUGUGGGUCCG	-1.13
CACACACUGCAAUUACUUUUGC	-3.13
CAGCAGCAAUUCAUGUUUUGAA	-3.25
CAGGGAGGUGAAUGUGAU	1.99
CAGUGCAAUAGUAUUGUCAAAGC	-2.72
CAGUGCAAUGAUAUUGUCAAAGC	-2.68

Sequence	cell count fold change with erlotinib
CAGUGCAAUGAUGAAAGGGCAU	-2.17
CAGUGCAAUGUUAAAAGGGCAU	-3.02
CAGUUAUCACAGUGCUGAUGCU	-1.92
CAUCUUACCGGACAGUGCUGGA	-0.519
CAUCUUACUGGGCAGCAUUGGA	-2.32
CAUCUUCCAGUACAGUGUUGGA	0.0817
CCAGUAUUAACUGUGCUGCUGA	-1.92
CCCCCACAACCGCGCUUGACUAGCU	-0.523
CCUCUGAAAUUCAGUUCUUCAG	-0.736
CCUCUGGGCCCUUCCUCCAG	0.0835
CGAAAACAGCAAUUACCUUUGC	-2.67
CGGGGCAGCUCAGUACAGGAU	0.97
CGGGUCGGAGUUAGCUCAAGCGG	-0.802
CGUGUAUUUGACAAGCUGAGUU	-5.21
CUACAAAGGGAAGCACUUUCUC	-2.75
CUAGUGAGGGACAGAACCAGGAUUC	-2.96
CUCAGUAGCCAGUGUAGAUCCU	-4.13
CUCCAGAGGGAAGUACUUUCU	-1.13
CUCUAGAGGGAAGCACUUUCUC	-0.525
CUCUAGAGGGAAGCGCUUUCUG	-1.78
CUCUCACCACUGCCCUCCCACAG	-1.11
CUCUUGAGGGAAGCACUUUCUGU	-1.33
CUGAAGUGAUGUGUAACUGAUCAG	-3.44
CUGCAAAGGGAAGCCCUUUC	-3.43
CUGGAGAUAUGGAAGAGCUGUGU	-0.316
CUGGUUUCACAUGGUGGCUUAG	-2.28

Reference: the supplement of paper PMC4976141
